The text below walks through data of patent publication US7943330B2, “Tailored glycoproteomic methods for the sequencing, mapping and identification of cellular glycoproteins” (Academia Sinica, priority 2007, dated 2011).

For one data set, the system named is Jurkat cells. Description: Flow cytometry of cell-surface CuAAC labeling of alkynyl-tagged glycans. Format: cell-based. Particulars: for cell-surface fluorescent labeling: CuAAC with 3-azido-7-hydroxycoumarin probe. The protocol:
Cell culture: Breast cancer MCF-7 and Jurkat cells were cultivated (2×10^6/10 ml) in RPMI 1640 medium (Invitrogen) supplemented with 10% FCS. Peracetylated alkynyl sugars Fucyne (200 uM) and ManNAcyne (25 uM) or native control sugars ManNAc for 1 to 3 days at 37° C.
Flow cytometry analysis: Cells were harvested, washed with 0.1% FCS/PBS, and resuspended (10^6 cells for Jurkat cells; 3×10^5 cells for other cells) in 100 microliters of click reaction solution (0.1 mM biotin probe, 0.1 mM Tris-triazoleamine catalyst, 0.1 mM CuSO4/0.5 mM sodium ascorbate, in PBS). The reaction was incubated at room temperature for 30 min, and then the cells were washed twice with 0.1% FCS/PBS. Cells treated with biotin probe were subsequently stained with fluorescein-conjugated streptavidin (0.5 microgram per sample in 50 microliters of 1% FCS/PBS) for 30 min at 4° C., and washed three times with 1% FCS/PBS. Data were acquired by BD LSR II with FACSDiva software, and were analyzed by CellQuestPro software (BD Biosciences).
(In flow cytometry, cells or beads pass a laser one at a time.)

The subject of data set [1] is cell extracts (soluble lysate fractions). In words: SDS/PAGE, Western blot and fluorescence detection of labeled glycoproteins in cell extracts. Type of data set: cell-based. The following applies: for signal by Western blot or fluorescence: control sugars processed under the same click condition; for biotin-labeling signal of proteins by Western blot: lysate clicked with biotin probe, mouse anti-biotin MAb, 200 micromolar Fucyne, 25 micromolar ManNAcyne, 3 days. The method, then:
Immunoblotting (IB) and immunoprecipitation (IP): Cells were seeded at 3×10^6/8 ml per 10-cm dish and treated with control and test sugars (200 micromolar Fuc vs. Fucyne or 25 micromolar ManNAc vs. ManNAcyne) in growth medium at 37° C. After 3 days, cell extracts were prepared by resuspending the cells in 1 ml of lysis buffer (1% Nonidet P-40/150 mM NaCl/protease inhibitor/100 mM sodium phosphate, pH 7.5). Protein extract (1 mg/ml) was labeled for 1 h at room temperature (0.1 mM biotin probe, or fluorogenic coumarin probe, 0.1 mM tris-triazoleamine catalyst, 1 mM CuSO4, and 2 mM sodium ascorbate, in PBS; the azido rhodamine probe was a gift from Benjamin F. Cravatt, The Scripps Research Institute). Labeled protein lysate was resolved by SDS/PAGE. For immunoblotting of biotin-labeled glycoproteins, electrophoresed proteins were transferred onto PVDF membranes, blocked for 20 min with SuperBlock® Blocking Buffer. Blots were either probed for 1 h with anti-biotin MAb (1 microgram/ml), and incubated with peroxidase-conjugated goat anti-mouse IgG (1:7,500 dilution) for 30 min; or probed for 1 h with peroxidase-conjugated anti-biotin Ab (Calbiochem)(1:5000 in SuperBlock). Each step was followed by a wash with 0.02% Tween 20/PBS (PBST). Signal was developed with SuperSignal Chemiluminescent Substrate and detected by exposure to x-ray film. For detecting the coumarin-labeled glycoproteins, gels were examined under 365 nm UV light with a 535+/−50 nm filter. Images were taken by using a BioDoc-It imaging system (UVP). Rhodamine gels were analyzed as described (Speers A E, Cravatt B F (2004) Chem Biol 11:535-546).
For orientation: A western blot detects proteins with antibodies after separation by electrophoresis.

The subject of data set [2] is MCF7 (breast adenocarcinoma) cells. Description: Confocal microscopy of intracellular labeling of alkynyl-tagged glycans. The following applies: 3-day incubation, biotin probe and fluorescein-conjugated streptavidin, overlaps with WGA (Golgi) signal. Type of data set: cell-based, Human. The protocol:
(§1) To visualize the localization of alkyne-tagged glycans, adherent cells were grown on slides in the presence or absence of alkynyl sugar analogs or precursors. After a 3-day-incubation, cells attached to the slides are fixed, permeabilized, and labeled with either a biotin probe or fluorogenic coumarin probe for fluorescent signal analysis with confocal microscopy, as shown in FIG. 3C. For comparison, samples are also stained with wheat germ agglutinin (WGA, a Golgi marker).
(§2) Fluorescent Labeling in Cells: Human hepatocellular carcinoma cells (Hep3B) or breast adenocarcinoma cells (MCF7) were seeded onto six-well plates (3×10^5/2 ml per well) containing glass coverslips, and were cultivated in 10% FCS/DMEM or 10% FCS/RPMI medium 1640. Growth medium was supplemented with a control sugar (200 micromolar Fuc or 25 micromolar ManNAc) and an alkynyl-modified sugar (Fucyne or ManNAcyne at the same concentration as control sugars). After growing for 3 days, cells on coverslips were fixed and permeabilized with acetone for 10 min, then subjected to the probe labeling reaction: 0.1 mM biotin probe or fluorogenic coumarin probe, 0.1 mM Tris-triazoleamine catalyst, 1 mM CuSO4, 2 mM sodium ascorbate, in PBS, at room temperature for 30 min. Subsequently, the fixed and labeled cells were rinsed with PBS and stained with Alexa Fluor 594-conjugated WGA lectin (2 micrograms/ml in 5% BSA/PBS) and/or fluorescein-conjugated streptavidin (2 micrograms/ml in 5% BSA/PBS) at room temperature for 30 min. Hoechst 33342 (10 microgram/ml in PBS) was used to stain nuclei. Fluorescent images were captured by Bio-Rad (Carl Zeiss) Radiance 2100 Rainbow laser scanning confocal microscopy system.

Data set [3] deals with Hep3B hepatocellular carcinoma cells. Described as above. Type of data set: cell-based, Human. Particulars: 3-day incubation; biotin probe and fluorogenic coumarin probe; compared with the Fucyne result. The method, then: as §1, §2
The subject of a further data set is cells. In words: Cell toxicity of sugar analogs at the levels used for metabolic incorporation. Type of data set: cell-based. Particulars: compared with azido Fuc analogs of previous approaches; 200 μM fucose precursors, 25 μM sialic acid precursors. The method, then:
In an exemplary implementation of the MOE method disclosed herein, an appropriate cell growth medium is supplemented with a peracetylated version of the CuAAC competent sugars, 25 μM for sialic acid precursors and 200 μM for fucose precursors (although peracetylation increases cellular uptake of sugars, the acetate groups are cleaved by esterases before it is converted to the nucleotide-sugar donor and incorporated into emerging glycans via glycosyltransferases). As shown by the biosynthetic pathways in FIG. 1, the ManNAc derivatives feed directly into de novo synthesis of NeuAc-CMP, whereas, fucose derivatives are incorporated through a salvage pathway for the synthesis of Fuc-GDP. For labeling, the alkyne-tagged cellular glycans, cells and/or cell lysates are treated with an appropriate CuAAC probe (depicted as 6-8 in FIG. 2). Overall, CuAAC is well-suited for functionalizing cellular glycans since it may be performed in aqueous environments, with high chemoselectively, to form stable 1,2,3-triazoles in nearly quantitative yield, starting from inconspicuous and inert azide or alkyne reaction partners. In conjunction the triazole ligand, CuAAc reactions can be executed under very mild and biocompatible conditions, requiring ambient temperature and low reactant concentrations. […] CuAAC is well-suited for end-point analysis, such as flow cytometry and glycoproteomic purposes. […]

The test system of data set [4] is plexin B2 in A549 mock, FucT4 and FucT6 cells. Description: Incorporation of alkynyl fucose into plexin B2 glycans (IP, on-membrane click reaction, streptavidin blot). Format: cell-based. The following applies: alkynyl fucose-treated mock, stronger in FucT4/6-overexpressing cells, no signal without treatment. The method, then:
Total proteins were extracted from untreated or alkynyl fucose-treated mock control, FucT4 and FucT6 stable cell lines. Proteins ([…]) were dissolved in 500 ml IP buffer (1% NP-40, 150 mM NaCl, 10% glycerol, 50 mM HEPES, pH 7.5 and 1×EDTA-free protease inhibitor cocktail) and precleared with 25 ml protein G beads (GE Healthcare) at 4° C. for 1 h. Precleared proteins extracts were then incubated with 3 mg anti-plexin B2 antibody/25 ml protein G beads at 4° C. for 1 h for overnight. Immunoprecipitates were subjected to SDS-PAGE and the proteins were transferred to PVDF membrane. After blocking with 5% BSA/PBST (0.1% Tween 20/PBS) for 1 h and wash with PBST and PBS sequentially, the protein-side of PVDF membrane was faced down to immerse in click reaction mixture (0.1 mM azido biotin, 0.1 mM Tris-triazoleamine catalyst, 1 mM CuSO4, 2 mM sodium ascorbate; 1 ml for a blot from a mini-gel) and incubated at room temperature for 1 h. After wash with PBST twice, the membrane was probed with peroxidase-conjugated streptavidin for biotin tags on blots.
Comparative profiling of fucosylated N-linked glycoproteins using the GIDmap method disclosed herein was conducted in lung cancer cell line A549 over-expressing either fucosyltransferases (FucT) 4 or 6. […] The biotin signals were then detected by immunoblotting with peroxidase-conjugated streptavidin. […]

Regarding `C[C@H](O)[C@@H](O)[C@@H](O)[C@H](O)C=O` [Fuc, Fucose, reference compound], in the data set on Jurkat cells, the cell-surface fluorescent labeling result is listed as “very low background signals”. Besides, the “signal by Western blot or fluorescence” value in data set [1] is “little to no signal”. In addition, the “intracellular labeling signal (confocal microscopy)” value (“intracellular labeling signal” below) in data set [2] is listed as “very low background”.
On to `CC(=O)N[C@@H]1C(O)O[C@H](CO)[C@@H](O)[C@@H]1O` (stereo partly shown) [ManNAc, N-acetylmannosamine, reference compound], for which, in data set [1], the “signal by Western blot or fluorescence” value was “little to no signal”. Further, the “intracellular labeling signal” value in data set [3] is “very low background”.
As to `C#CCCC(=O)N[C@@H]1C(OC(C)=O)O[C@H](COC(C)=O)[C@@H](OC(C)=O)[C@@H]1OC(C)=O` (stereo partly shown) [ManNAcyne, 1,3,4,6-tetra-O-acetyl-N-4-pentynoylmannosamine], the toxicity to cells entry in the data set with cells is given as “greatly reduced toxicity”. In addition, the cell-surface labeling signal entry in the data set with Jurkat cells (CuAAC-labeled with biotin, detected by fluorescein-conjugated streptavidin, vs control ManNAc) is given as “specific signal on the cell surface”. Besides, the “biotin-labeling signal of proteins by Western blot” value in data set [1] is “specific biotin-labeling signals were detected”.
Regarding “1,2,3,4-tetraacetyl alkynyl fucose [Fucyne]”, in the data set with cells, the toxicity to cells result was “greatly reduced toxicity”. Also, the cell-surface fluorescent labeling entry in the data set on Jurkat cells is recorded as “significant fluorescent labeling”. For the same molecule, the “biotin-labeling signal of proteins by Western blot” value in data set [1] is recorded as “specific biotin-labeling signals were detected”. Moreover, the “intracellular labeling signal” value in data set [2] is “strong punctuate-labeling signal”. Moreover, the “biotin signal of immunoprecipitated plexin B2 after on-membrane CuAAC” value in data set [4] was “positive signals”.
